Source: patent publication US20120321571A1, “PARABEN COMPOSITIONS” (ANTERIOS, INC., priority 2011, published 2012)

System: axillary sweating
Assay: Clinical study of the effect of Propylparaben on axillary sweating (gravimetric sweat measurement)
Assay type: in vivo, human

## CCCOC(=O)c1ccc(O)cc1 [Propylparaben]
Based on percent of subjects with at least 30% reduction versus Baseline, versus placebo (water)
  greater effectiveness in reducing sweat production than placebo (by responder assessment): 245%
Overall conclusion of the clinical study
  conclusion on activity in reducing sweat production: biologically active in reducing sweat production
Subjects with moderate to severe primary axillary hyperhidrosis, single topical treatment, 0.20 mg per axilla, two weeks after treatment, 5 minute collection
  reduction in sweat production (average), gravimetric sweat measurement: 177 mg
Two weeks after single topical treatment, 0.20 mg per axilla, gravimetric sweat measurement
  percent of subjects with at least a 30% reduction in sweat production compared to Baseline: 70%
Two weeks after single topical treatment, 0.20 mg per axilla, versus placebo (water)
  greater reduction in sweat production than the control (placebo) group: 337%
